# Source: patent US20040110718A1, “Anti-HCV nucleoside derivatives” (priority 2000, published 2004)
# System: not given
# Assay: not given
# Settings: not given
row,SMILES,melting point
1,OC[C@H]1O[C@@H](n2cnc3c(N4CCCC4)nc(Cl)nc32)[C@H](O)[C@@H]1O,229 °C
2,OC[C@H]1O[C@@H](n2cnc3c(-n4cccc4)ncnc32)[C@@H](O)[C@@H]1O,212 to 213 °C
3,OC[C@@H]1C[C@@H](O)[C@H](n2cnc3c(-n4cccc4)ncnc32)O1,175 to 176 °C
4,OC[C@@H]1O[C@H](n2cnc3c(-n4cccc4)ncnc32)[C@@H](O)[C@H]1O,114 to 115 °C
5,Nc1ncnc2c1nc(N1CCCCC1)n2[C@@H]1O[C@H](CO)[C@@H](O)[C@H]1O,207 to 209 °C (dec.)
6,Nc1ncnc2c1nc(NCCCc1ccccc1)n2[C@@H]1O[C@H](CO)[C@@H](O)[C@H]1O,180 to 183 °C
7,Nc1ncnc2c1nc(N1CCOCC1)n2[C@@H]1O[C@H](CO)[C@@H](O)[C@H]1O,210 to 213 °C
8,CN(CCc1ccccc1)c1nc2c(N)ncnc2n1[C@@H]1O[C@H](CO)[C@@H](O)[C@H]1O,118 to 120 °C
9,Nc1ncnc2c1nc(NCc1cccnc1)n2[C@@H]1O[C@H](CO)[C@@H](O)[C@H]1O,235 to 237 °C (dec.)
10,Nc1ncnc2c1nc(N1CCc3ccccc3C1)n2[C@@H]1O[C@H](CO)[C@@H](O)[C@H]1O,145 to 150 °C (dec.)
11,Nc1ncnc2c1nc(NCCN1CCOCC1)n2[C@@H]1O[C@H](CO)[C@@H](O)[C@H]1O,210 to 215 °C
12,Nc1ncnc2c1nc(NCCC1CCCCC1)n2[C@@H]1O[C@H](CO)[C@@H](O)[C@H]1O,203 to 205 °C
13,Cc1ccc(CCNc2nc3c(N)ncnc3n2[C@@H]2O[C@H](CO)[C@@H](O)[C@H]2O)cc1,117 to 124 °C (dec.)
14,Cn1cccc1CCNc1nc2c(N)ncnc2n1[C@@H]1O[C@H](CO)[C@@H](O)[C@H]1O,225 to 228 °C
15,Nc1ncnc2c1nc(NCCc1ccc(S(N)(=O)=O)cc1)n2[C@@H]1O[C@H](CO)[C@@H](O)[C@H]1O,157 to 163 °C (dec.)
16,Nc1ncnc2c1nc(N1CCN(c3ccccc3)CC1)n2[C@@H]1O[C@H](CO)[C@@H](O)[C@H]1O,220 to 223 °C (dec.)
17,Nc1ncnc2c1nc(NCCc1c[nH]cn1)n2[C@@H]1O[C@H](CO)[C@@H](O)[C@H]1O,148 to 156 °C (dec.)

row,SMILES,melting point
1,Nc1ncnc2c1nc(NCc1cccc3ccccc13)n2[C@@H]1O[C@H](CO)[C@@H](O)[C@H]1O,140 to 150 °C
2,Nc1ncnc2c1nc(NCCc1ccc(O)cc1)n2[C@@H]1O[C@H](CO)[C@@H](O)[C@H]1O,262 to 265 °C (dec.)
3,Nc1ncnc2c1nc(NCCCCc1ccccc1)n2[C@@H]1O[C@H](CO)[C@@H](O)[C@H]1O,190 °C
4,Nc1ncnc2c1nc(NCCc1ccc(Cl)cc1)n2[C@@H]1O[C@H](CO)[C@@H](O)[C@H]1O,155 to 158 °C (dec.)
5,Nc1ncnc2c1nc(NCCc1ccc(Cl)cc1Cl)n2[C@@H]1O[C@H](CO)[C@@H](O)[C@H]1O,164 to 168 °C (dec.)
6,C=CCNc1nc2c(N)ncnc2n1[C@@H]1O[C@H](CO)[C@@H](O)[C@H]1O,234 to 237 °C (dec.)
7,Nc1ncnc2c1nc(NCCCCCCc1ccccc1)n2[C@@H]1O[C@H](CO)[C@@H](O)[C@H]1O,165 to 167 °C
8,Nc1ncnc2c1nc(NCCc1ccccc1)n2[C@H]1C[C@H](O)[C@@H](CO)O1,192 to 195 °C
9,Nc1ncnc2c1nc(NCCCc1ccccc1)n2[C@H]1C[C@H](O)[C@@H](CO)O1,198 to 201 °C
10,Nc1ncnc2c1nc(NCc1ccccc1)n2[C@H]1C[C@H](O)[C@@H](CO)O1,132 to 134 °C
11,Nc1ncnc2c1nc(NCCCCc1ccccc1)n2[C@H]1C[C@H](O)[C@@H](CO)O1,168 to 171 °C
12,Nc1ncnc2c1nc(NCCCCCCc1ccccc1)n2[C@H]1C[C@H](O)[C@@H](CO)O1,159 to 161 °C
13,Nc1nc(-c2ccccc2)c2ncn([C@@H]3O[C@H](CO)[C@@H](O)[C@H]3O)c2n1,187 to 190 °C
14,CCc1cn([C@@H]2O[C@H](CO)[C@@H](O)[C@H]2O)c(=O)[nH]c1=O,180 to 181 °C
15,O=c1ccn([C@@H]2O[C@H](CO)[C@@H](O)[C@H]2Cl)c(=O)[nH]1,206 to 207 °C
16,O=c1ccn([C@@H]2O[C@H](CO)[C@@H](O)[C@H]2Br)c(=O)[nH]1,194 to 195 °C

# System: HCV replicon RNA replication
# Assay: HCV replicon assay (quantification of replicon RNA, Northern blot / Taqman kinetic PCR)
# Assay type: cell-based
# Settings: Hepatitis C virus, Huh-7, 72 h
# Protocol: Assay Method: The activity of the compounds was assayed using an adaptation of the method reported by Lohmann et al [V. Lohmann et al., Science, 1999, 285, 110-113].
# The HCV replicon-containing cell line is used for the identification of small molecules that are able to inhibit the replication of the replicon RNA. Since the replicon RNA replication mimics the replication of the HCV RNA in infected hepatocytes, it is believed that those small molecules that have the above property are interesting for further development as anti-HCV drugs.
# The inhibition of the HCV replicon RNA replication will lead to a decrease of the replicon RNA in the cell, which can be measured using a method that specifically quantifies this RNA.
# Northern blot: One method for quantification of this RNA uses the standard Northern blot known to any person skilled in the art.
# Kinetic PCR: A second assay for the quantification of replicon RNA is based on the amplification of the replicon RNA that remains in the cell, after incubation of the cells with a proper concentration of the small molecules. This method involves the reverse transcription of the replicon RNA to the corresponding complementary DNA (cDNA), followed by amplification of the cDNA using the Taqman Kinetic PCR technology (PE Biosystems). This consists of hybridisation of the cDNA with a complementary reporter oligonucleotide (probe), containing a combined fluorescent dye and a quencher dye. Amplification of the DNA sequence containing the hybridised reporter probe, using flanking oligonucleotide primers will lead to the separation of the fluorescent dye from the quencher dye. This will result in an increase of the fluorescence during each amplification cycle.
# The neomycin phosphotransferase gene sequence that is present in the replicon RNA was chosen for amplification using specifically designed oligonucleotide primers. To control for (a) cell number that can vary depending on the toxicity or cytostatic effect of the small molecules, and (b) for errors during total RNA extraction, amplification of the host β-actin gene is used for normalisation.
# The accumulation of the PCR products during the reaction is monitored directly by measuring the increase in fluorescence of the reporter dye. The amount of HCV replicon RNA (and β-actin RNA) originally present in the total RNA extracted from the cells is then expressed as a threshold cycle, e.g. the cycle at which there is a statistically significant increase in the fluorescence above the background.
# For this procedure, HCV replicon-containing human hepatoma Huh7 cells (9-13) in growth medium (DMEM) containing 5% FCS are plated in a 96-well plate at 5×10^3 cells per well, and the plate incubated overnight. 24 hours later, different dilutions in 0.1 ml growth medium of chemical compounds were added to the wells, and the plate further incubated at 37° C. for three days. Total RNA coming from each well is extracted using the RNeasy™ procedure (Qiagen manufacturer instructions), and the total RNA is eluted in a final volume of 0.13 ml. Next, a 2 μl sample of the total RNA is used for convertion into cDNA using a reverse transcription (RT) step. A RT mastermix containing 1 μl 10× Taqman RT buffer, 2.2 μl 25 mM MgCl2 (5.5 mM final conc.), 2 μl dNTP mix (500 μM each), 0.5 μl random hexamer primers (2.5 μM), 0.2 μl RNase inhibitor (0.4 u/μl ), 0.25 μl RT (1.25 u/μl ), 1.85 μl H2O, was distributed in a 96-well plate and 2 μl total RNA was added to each well.
# The RT reaction is performed by incubation of the plate 10 min at 25° C., 30 min at 48° C., 5 min at 95° C. and cooling to 4° C. The cDNA samples are then stored at −20° C. or directly used for the PCR reaction. […]
row,SMILES,IC50 [µM]
1,"Nc1ncnc2c1nc(Br)n2[C@@H]1O[C@H](CO)[C@@H](O)[C@H]1O [Example 10, 8-Bromoadenosine]",3.6
2,"OC[C@H]1O[C@@H](n2cnc3c(Cl)ncnc32)[C@H](O)[C@@H]1O [Example 19, 6-Chloro-9-(β-D-ribofuranosyl)purine]",14
3,"C=CCNc1ncnc2c1ncn2[C@@H]1O[C@H](CO)[C@@H](O)[C@H]1O [Example 80, 6-(2-Propenyl)amino-9-(β-D-ribofuranosyl)purine]",5.7

# Same assay, conditions: Hepatitis C virus, Huh-7, 72 h; HCV replicon-containing human hepatoma Huh7 cells (9-13), three days incubation; concentration reducing replicon RNA levels by 50%; read-out: IC50
row,SMILES,IC50 [µM]
1,"CN(C)c1ncnc2c1ncn2[C@@H]1O[C@H](CO)[C@@H](O)[C@H]1O [Example 1, 6-Dimethylamino-9-(β-D-ribofuranosyl)purine]",0.6
2,"Nc1c2ncn([C@@H]3O[C@H](CO)[C@@H](O)[C@H]3O)c2nc[n+]1[O-] [Example 7, Adenosine-1-oxide]",2
3,"CSc1ncnc2c1ncn2[C@@H]1O[C@H](CO)[C@@H](O)[C@H]1O [Example 16, 6-Methylthio-9-(β-D-ribofuranosyl)purine]",0.08
4,"O=c1[nH]c(=O)n([C@@H]2O[C@H](CO)[C@@H](O)[C@H]2O)cc1F [Example 24, 5-Fluorouridine]",1.4
5,"OC[C@H]1O[C@@H](n2cnc3c(N4CCc5ccccc5C4)ncnc32)[C@H](O)[C@@H]1O [Example 57, 9-(β-D-Ribofuranosyl)-6-(1,2,3,4-tetrahydro-2-isoquinolyl)purine]",0.1
6,"OC[C@H]1O[C@@H](n2cnc3c(N4CCCC4)ncnc32)[C@H](O)[C@@H]1O [Example 77, 6-(1-Pyrrolidinyl)-9-(β-D-ribofuranosyl)purine]",2.6
7,"C#CCNc1ncnc2c1ncn2[C@@H]1O[C@H](CO)[C@@H](O)[C@H]1O [Example 81, 6-(2-Propynyl)amino-9-(β-D-ribofuranosyl)purine]",3.8
8,"N=c1c2ncn([C@@H]3O[C@H](CO)[C@@H](O)[C@H]3O)c2ncn1Cc1ccccc1 [Example 93, 1-Benzyl-6-imino-9-(β-D-ribofuranosyl)purine]",4.5
9,"OC[C@H]1O[C@@H](n2cnc3c(-n4cccc4)ncnc32)[C@H](O)[C@@H]1O [Example 105, 6-(1-Pyrrolyl)-9-(β-D-ribofuranosyl)purine]",0.1
10,"OC[C@H]1O[C@@H](n2cnc3c(-n4ccnc4)ncnc32)[C@H](O)[C@@H]1O [Example 111, 6-(1-Imidazolyl)-9-(β-D-ribofuranosyl)purine]",6.2
11,"OC[C@H]1O[C@@H](n2cnc3c(-n4cncn4)ncnc32)[C@H](O)[C@@H]1O [Example 112, 9-(β-D-Ribofuranosyl)-6-(1,2,4-triazol-1-yl)purine]",4.4
12,"OC[C@H]1O[C@@H](n2cnc3c(-n4cccn4)ncnc32)[C@H](O)[C@@H]1O [Example 113, 6-(1-Pyrazolyl)-9-(β-D-ribofuranosyl)purine]",4.4
13,"O=c1[nH]/c(=N/O)ccn1[C@@H]1O[C@H](CO)[C@@H](O)[C@H]1O [Example 239, 4-oximino-1-(β-D-ribofuranosyl)pyrimidin-2(1H)-one]",1.3
14,"Nc1ccn([C@@H]2O[C@H](CO)[C@@H](O)C2(F)F)c(=O)n1 [Example 243, 1-(2-deoxy-2,2-difluoro-β-D-erythropentofuranosyl)cytosine]",0.07
15,"Nc1ccn([C@H]2O[C@@H](CO)[C@H](O)[C@@H]2O)c(=O)n1 [Example 244, L-cytidine]",10
